This assay has as its system liver slices. The assay is described as follows: Effect of acetaminophen on liver oxygen consumption rate (OCR) in microperifusion prototype. The note with it: two 1 mg liver slices per channel, after about three hours baseline, triplicate channels. Type of assay: cell-based, rat.

`CC(=O)Nc1ccc(O)cc1` [acetaminophen]: the OCR lowered (6 mM acetaminophen) came to 40% and the OCR lowered (15 mM acetaminophen) is recorded as 60%.

These data come from US11926812B2, “Pressure-driven, adjustable throughput fluidics for tissue and cell perifusions” (EnTox Sciences, Inc., priority 2017, dated 2024).
